Source: the NIST ThermoML archive (doi:10.1016/j.jct.2017.11.007)

Experiment: mn = molality of the nth substance listed, in mol/kg
Conditions: 74.66 kPa, Liquid; for speed of sound: Frequency=3 MHz, Single path-length method; for mass density: Vibrating tube method

Cc1cc(C)nc([N-]S(=O)(=O)c2ccc(N)cc2)n1.[Na+] + O
Conditions | mass density [kg/m3] | speed of sound [m/s]
278.15 K, m1 = 0.00501 | 1000.54 | 1427.9
278.15 K, m1 = 0.00799 | 1000.88 | 1428.7
278.15 K, m1 = 0.01 | 1001.11 | 1429.2
278.15 K, m1 = 0.01488 | 1001.67 | 1430.3
278.15 K, m1 = 0.01983 | 1002.23 | 1431.3
278.15 K, m1 = 0.02501 | 1002.81 | 1432.3
278.15 K, m1 = 0.02961 | 1003.34 | 1433.5
278.15 K, m1 = 0.03503 | 1003.95 | 1434.6
278.15 K, m1 = 0.0401 | 1004.52 | 1435.7
278.15 K, m1 = 0.04493 | 1005.06 | 1436.6
278.15 K, m1 = 0.04993 | 1005.63 | 1437.7
278.15 K, m1 = 0.05504 | 1006.2 | 1438.8
278.15 K, m1 = 0.05966 | 1006.73 | 1439.9
283.15 K, m1 = 0.00501 | 1000.27 | 1448.8
283.15 K, m1 = 0.00799 | 1000.6 | 1449.4
283.15 K, m1 = 0.01 | 1000.83 | 1449.9
283.15 K, m1 = 0.01488 | 1001.37 | 1450.9
283.15 K, m1 = 0.01983 | 1001.92 | 1451.9
283.15 K, m1 = 0.02501 | 1002.5 | 1452.9
283.15 K, m1 = 0.02961 | 1003.01 | 1453.9
283.15 K, m1 = 0.03503 | 1003.61 | 1455
283.15 K, m1 = 0.0401 | 1004.18 | 1456
283.15 K, m1 = 0.04493 | 1004.71 | 1456.8
283.15 K, m1 = 0.04993 | 1005.27 | 1457.8
283.15 K, m1 = 0.05504 | 1005.83 | 1458.8
283.15 K, m1 = 0.05966 | 1006.35 | 1459.8
288.15 K, m1 = 0.00501 | 999.659 | 1467.2
288.15 K, m1 = 0.00799 | 999.989 | 1467.8
288.15 K, m1 = 0.01 | 1000.21 | 1468.3
288.15 K, m1 = 0.01488 | 1000.75 | 1469.2
288.15 K, m1 = 0.01983 | 1001.29 | 1470.1
288.15 K, m1 = 0.02501 | 1001.86 | 1471.1
288.15 K, m1 = 0.02961 | 1002.36 | 1472
288.15 K, m1 = 0.03503 | 1002.95 | 1473
288.15 K, m1 = 0.0401 | 1003.51 | 1474
288.15 K, m1 = 0.04493 | 1004.03 | 1474.8
288.15 K, m1 = 0.04993 | 1004.58 | 1475.7
288.15 K, m1 = 0.05504 | 1005.14 | 1476.7
288.15 K, m1 = 0.05966 | 1005.65 | 1477.6
293.15 K, m1 = 0.00501 | 998.758 | 1483.5
293.15 K, m1 = 0.00799 | 999.081 | 1484
293.15 K, m1 = 0.01 | 999.302 | 1484.5
293.15 K, m1 = 0.01488 | 999.834 | 1485.3
293.15 K, m1 = 0.01983 | 1000.37 | 1486.2
293.15 K, m1 = 0.02501 | 1000.92 | 1487.1
293.15 K, m1 = 0.02961 | 1001.42 | 1487.9
293.15 K, m1 = 0.03503 | 1002 | 1488.9
293.15 K, m1 = 0.0401 | 1002.55 | 1489.8
293.15 K, m1 = 0.04493 | 1003.07 | 1490.5
293.15 K, m1 = 0.04993 | 1003.61 | 1491.4
293.15 K, m1 = 0.05504 | 1004.16 | 1492.3
293.15 K, m1 = 0.05966 | 1004.66 | 1493.2
298.15 K, m1 = 0.00501 | 997.59 | 1497.7
298.15 K, m1 = 0.00799 | 997.912 | 1498.2
298.15 K, m1 = 0.01 | 998.128 | 1498.6
298.15 K, m1 = 0.01488 | 998.655 | 1499.4
298.15 K, m1 = 0.01983 | 999.182 | 1500.2
298.15 K, m1 = 0.02501 | 999.733 | 1501.1
298.15 K, m1 = 0.02961 | 1000.22 | 1501.9
298.15 K, m1 = 0.03503 | 1000.79 | 1502.8
298.15 K, m1 = 0.0401 | 1001.34 | 1503.6
298.15 K, m1 = 0.04493 | 1001.85 | 1504.3
298.15 K, m1 = 0.04993 | 1002.39 | 1505.2
298.15 K, m1 = 0.05504 | 1002.93 | 1506
298.15 K, m1 = 0.05966 | 1003.42 | 1506.8
303.15 K, m1 = 0.00501 | 996.185 | 1510.1
303.15 K, m1 = 0.00799 | 996.504 | 1510.6
303.15 K, m1 = 0.01 | 996.718 | 1510.9
303.15 K, m1 = 0.01488 | 997.238 | 1511.7
303.15 K, m1 = 0.01983 | 997.76 | 1512.4
303.15 K, m1 = 0.02501 | 998.303 | 1513.2
303.15 K, m1 = 0.02961 | 998.79 | 1514
303.15 K, m1 = 0.03503 | 999.357 | 1514.8
303.15 K, m1 = 0.0401 | 999.892 | 1515.6
303.15 K, m1 = 0.04493 | 1000.4 | 1516.3
303.15 K, m1 = 0.04993 | 1000.93 | 1517.1
303.15 K, m1 = 0.05504 | 1001.47 | 1517.8
303.15 K, m1 = 0.05966 | 1001.95 | 1518.6
308.15 K, m1 = 0.00501 | 994.563 | 1520.7
308.15 K, m1 = 0.00799 | 994.878 | 1521.2
308.15 K, m1 = 0.01 | 995.089 | 1521.5
308.15 K, m1 = 0.01488 | 995.605 | 1522.2
308.15 K, m1 = 0.01983 | 996.12 | 1523
308.15 K, m1 = 0.02501 | 996.661 | 1523.7
308.15 K, m1 = 0.02961 | 997.14 | 1524.4
308.15 K, m1 = 0.03503 | 997.703 | 1525.2
308.15 K, m1 = 0.0401 | 998.234 | 1525.9
308.15 K, m1 = 0.04493 | 998.733 | 1526.6
308.15 K, m1 = 0.04993 | 999.258 | 1527.3
308.15 K, m1 = 0.05504 | 999.792 | 1528
308.15 K, m1 = 0.05966 | 1000.27 | 1528.7
